Assay [1] concerns the target T1, Adenosine deaminase (Homo sapiens, UniProt P00813).
T1 sequence (P00813 whole entry): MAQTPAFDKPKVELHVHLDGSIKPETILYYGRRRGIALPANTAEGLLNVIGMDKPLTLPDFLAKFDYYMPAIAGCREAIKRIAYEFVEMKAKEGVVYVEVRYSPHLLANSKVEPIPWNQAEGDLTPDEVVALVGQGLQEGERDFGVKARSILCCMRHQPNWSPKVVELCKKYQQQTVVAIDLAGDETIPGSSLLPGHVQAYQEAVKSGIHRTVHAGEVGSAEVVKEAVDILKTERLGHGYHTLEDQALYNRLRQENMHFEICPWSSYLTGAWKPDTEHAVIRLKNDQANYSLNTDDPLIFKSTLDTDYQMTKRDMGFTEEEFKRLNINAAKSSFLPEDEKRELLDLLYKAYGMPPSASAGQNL
The assay is described as follows: The compound was tested in vitro for inhibition of human erythrocytic adenosine deaminase.

In assay [2] the target is T2, Adenosine deaminase (Bos taurus, UniProt P56658).
T2 sequence (P56658 whole entry): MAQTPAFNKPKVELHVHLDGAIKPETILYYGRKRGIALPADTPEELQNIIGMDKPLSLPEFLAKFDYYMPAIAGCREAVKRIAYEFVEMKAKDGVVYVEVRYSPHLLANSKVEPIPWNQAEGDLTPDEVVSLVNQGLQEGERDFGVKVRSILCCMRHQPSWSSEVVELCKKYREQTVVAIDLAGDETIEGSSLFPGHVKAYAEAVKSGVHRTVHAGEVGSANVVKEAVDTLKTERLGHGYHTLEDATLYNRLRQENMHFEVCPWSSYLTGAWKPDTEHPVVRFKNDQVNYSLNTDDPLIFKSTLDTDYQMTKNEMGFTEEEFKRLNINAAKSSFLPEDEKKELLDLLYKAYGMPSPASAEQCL
The assay is described as follows: In vitro inhibition of adenosine deaminase in calf intestinal mucosa. The format is tissue-based.

As a reminder, the pKi is −log10 of the Ki, conventionally taken in molar units.

pKi: −log10 of the molar value.

At Adenosine deaminase [1], `OC[C@H]1O[C@@H](n2cnc3c2N=CNC[C@H]3O)[C@H](O)[C@@H]1O` [COFORMYCIN] gave a negative-log Ki (pKi) of 11.00.
With `CC1=NC[C@@H](O)c2ncn([C@H]3C[C@H](O)[C@@H](CO)O3)c2N1`, the pKi at Adenosine deaminase [2] is 7.80.
The same measure, in the same setting: for `OCCOCn1cnc2c1NC=NCC2O` (stereo not drawn) the value was 7.01.
